Among the data in patent US12577226B2, “Compounds for treating Huntington's disease” (PTC THERAPEUTICS, INC., priority 2019, dated 2026) are IC50 values, retold here.

What is called IC50 is the concentration at which inhibition is half-maximal. Higher therefore signals lower potency.

This test has as its system Endogenous Huntingtin Protein (capture with MW1 (expanded polyglutamine) or MAB2166 antibody). In words: Endogenous Huntingtin Protein Assay (ELISA-based Meso Scale Discovery electrochemiluminescence assay). Format: cell-based. The following applies: MSD electrochemiluminescence platform. In short, it runs like this: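 MSD electrochemiluminescence sandwich immunoassay: plates coated with 1 μg/mL MW1 or MAB2166 capture antibody, samples incubated overnight at 4 °C. Detection with rabbit monoclonal #5656S then SULFO-TAG anti-rabbit (each 0.25 μg/mL, 1 h RT).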
(In general: In an ELISA, binding on a coated surface is turned into a signal by an enzyme label.)
Turning to `Cn1cc2cc(-c3cnc(-c4ccc(N5CC6CC5CN6)nn4)c(O)c3)cc(F)c2n1` (stereo not shown) [Compound 105, 2-[6-(2,5-diazabicyclo[2.2.1]heptan-2-yl)pyridazin-3-yl]-5-(7-fluoro-2-methyl-2H-indazol-5-yl)pyridin-3-ol], the half-maximal inhibitory concentration (IC50) was not above 100 nM.

Compound `Cc1cn2cc(-c3cnc(-c4ccc(N5CCC6(CCN6)C5)nn4)c(O)c3)ccc2n1` (stereo not shown) [Compound 107, 2-[6-(1,6-diazaspiro[3.4]octan-6-yl)pyridazin-3-yl]-5-(2-methylimidazo[1,2-a]pyridin-6-yl)pyridin-3-ol] returned a half-inhibitory concentration (IC50) not above 100 nM.

For `Cc1n[nH]cc1CNc1cnc(-c2ccc(N3CCNC(C)C3)nn2)c(O)c1` (stereo not shown) [Compound 108, 2-[6-(3-methylpiperazin-1-yl)pyridazin-3-yl]-5-{[(3-methyl-1H-pyrazol-4-yl)methyl]amino}pyridin-3-ol], the 50% inhibitory concentration (IC50) fell in the range of 500 to 1000 nM.

Regarding `CC1CN(c2ccc(-c3ncc(NCc4ccccn4)cc3O)nn2)CCN1` (stereo not shown) [Compound 109, 2-[6-(3-methylpiperazin-1-yl)pyridazin-3-yl]-5-{[(pyridin-2-yl)methyl]amino}pyridin-3-ol], the IC50 fell in the range of 500 to 1000 nM.

With `CC1CN(c2ccc(-c3ncc(NCc4cccnc4)cc3O)nn2)CCN1` (stereo not shown) [Compound 110, 2-[6-(3-methylpiperazin-1-yl)pyridazin-3-yl]-5-{[(pyridin-3-yl)methyl]amino}pyridin-3-ol], the IC50 fell in the range of 500 to 1000 nM.

The compound `CC1CN(c2ccc(-c3ncc(NCc4ccncc4)cc3O)nn2)CCN1` (stereo not shown) [Compound 111, 2-[6-(3-methylpiperazin-1-yl)pyridazin-3-yl]-5-{[(pyridin-4-yl)methyl]amino}pyridin-3-ol] registered an IC50 of 500 to 1000 nM.

The compound `CC1CN(c2ccc(-c3ncc(NCc4cnc5ccccc5c4)cc3O)nn2)CCN1` (stereo not shown) [Compound 112, 2-[6-(3-methylpiperazin-1-yl)pyridazin-3-yl]-5-{[(quinolin-3-yl)methyl]amino}pyridin-3-ol] yielded an IC50 of 500 to 1000 nM.

The compound `CC1CN(c2ccc(-c3ncc(NCc4cccc5cccnc45)cc3O)nn2)CCN1` (stereo not shown) [Compound 113, 2-[6-(3-methylpiperazin-1-yl)pyridazin-3-yl]-5-{[(quinolin-8-yl)methyl]amino}pyridin-3-ol] registered a 50% inhibitory concentration (IC50) of 500 to 1000 nM.

For `CC1(C)CC(Oc2ccc(-c3ncc(-c4cn[nH]c4)cc3O)nn2)CC2(COC2)N1` (stereo not shown) [Compound 114, 2-{6-[(6,6-dimethyl-2-oxa-5-azaspiro[3.5]nonan-8-yl)oxy]pyridazin-3-yl}-5-(1H-pyrazol-4-yl)pyridin-3-ol], the IC50 is not above 100 nM.

Regarding `Cc1cn2cc(-c3cnc(-c4ccc(N5C[C@@H](C)N[C@@H](C)C5)nn4)c(O)c3)cnc2n1` [Compound 115, 2-{6-[(3R,5S)-3,5-dimethylpiperazin-1-yl]pyridazin-3-yl}-5-(2-methylimidazo[1,2-a]pyrimidin-6-yl)pyridin-3-ol and 2-{6-[(3S,5R)-3,5-dimethylpiperazin-1-yl]pyridazin-3-yl}-5-(2-methylimidazo[1,2-a]pyrimidin-6-yl)pyridin-3-ol], the IC50 lay in the range of 100 to 500 nM.

With `Cc1cn2cc(-c3cnc(-c4ccc(N5CC6CC5CN6)nn4)c(O)c3)cnc2n1` (stereo not shown) [Compound 116, 2-[6-(2,5-diazabicyclo[2.2.1]heptan-2-yl)pyridazin-3-yl]-5-(2-methylimidazo[1,2-a]pyrimidin-6-yl)pyridin-3-ol], the IC50 was in the range of 500 to 1000 nM.

On to `CC1CN(c2ccc(-c3ncc(Nc4cccnc4)cc3O)nn2)CCN1` (stereo not shown) [Compound 117, 2-[6-(3-methylpiperazin-1-yl)pyridazin-3-yl]-5-[(pyridin-3-yl)amino]pyridin-3-ol], for which the IC50 was 500 to 1000 nM.

Compound `C[C@@H]1CN(c2ccc(-c3ncc(/C=C/c4cnn(C)c4)cc3O)nn2)C[C@H](C)N1` [Compound 118, 2-{6-[(3R,5S)-3,5-dimethylpiperazin-1-yl]pyridazin-3-yl}-5-[(E)-2-(1-methyl-1H-pyrazol-4-yl)ethenyl]pyridin-3-ol and 2-{6-[(3S,5R)-3,5-dimethylpiperazin-1-yl]pyridazin-3-yl}-5-[(E)-2-(1-methyl-1H-pyrazol-4-yl)ethenyl]pyridin-3-ol] had an IC50 not above 100 nM.

Turning to `CCC1CN(c2ccc(-c3ncc(-c4cn[nH]c4)cc3O)nn2)CCN1` (stereo not shown) [Compound 119, 2-[6-(3-ethylpiperazin-1-yl)pyridazin-3-yl]-5-(1H-pyrazol-4-yl)pyridin-3-ol], the IC50 was not above 100 nM.

`CCC1CN(c2ccc(-c3ncc(-c4cc(F)c5nn(C)cc5c4)cc3O)nn2)CCN1` (stereo not shown) [Compound 120, 2-[6-(3-ethylpiperazin-1-yl)pyridazin-3-yl]-5-(7-fluoro-2-methyl-2H-indazol-5-yl)pyridin-3-ol] returned an IC50 not above 100 nM.

`CC(C)[C@H]1CN(c2ccc(-c3ncc(-c4cc(F)c5nn(C)cc5c4)cc3O)nn2)CCN1` [Compound 122, 5-(7-fluoro-2-methyl-2H-indazol-5-yl)-2-{6-[(3S)-3-(propan-2-yl)piperazin-1-yl]pyridazin-3-yl}pyridin-3-ol] returned an IC50 not above 100 nM.

In turn, `Oc1cc(-c2cn[nH]c2)cnc1-c1ccc(N2CCNC(C3CC3)C2)nn1` (stereo not shown) [Compound 123, 2-[6-(3-cyclopropylpiperazin-1-yl)pyridazin-3-yl]-5-(1H-pyrazol-4-yl)pyridin-3-ol] registered an IC50 not above 100 nM.

Turning to `C[C@@H]1CN(c2ccc(-c3ncc(-c4ccc5nn(C)cc5c4)cc3O)nn2)C[C@H](C)N1` [Compound 124, 2-{6-[(3R,5S)-3,5-dimethylpiperazin-1-yl]pyridazin-3-yl}-5-(2-methyl-2H-indazol-5-yl)pyridin-3-ol and 2-{6-[(3S,5R)-3,5-dimethylpiperazin-1-yl]pyridazin-3-yl}-5-(2-methyl-2H-indazol-5-yl)pyridin-3-ol], the 50% inhibitory concentration (IC50) is not above 100 nM.

In the case of `Cc1ccc(Nc2cnc(-c3ccc(N4C[C@@H](C)N[C@@H](C)C4)nn3)c(O)c2)cn1` [Compound 125, 2-{6-[(3R,5S)-3,5-dimethylpiperazin-1-yl]pyridazin-3-yl}-5-[(6-methylpyridin-3-yl)amino]pyridin-3-ol], the concentration for half-maximal inhibition (IC50) fell in the range of 100 to 500 nM.

In turn, `C[C@@H]1CN(c2ccc(-c3ncc(-c4ccc5c(cnn5C)c4)cc3O)nn2)C[C@H](C)N1` [Compound 126, 2-{6-[(3R,5S)-3,5-dimethylpiperazin-1-yl]pyridazin-3-yl}-5-(1-methyl-1H-indazol-5-yl)pyridin-3-ol and 2-{6-[(3S,5R)-3,5-dimethylpiperazin-1-yl]pyridazin-3-yl}-5-(1-methyl-1H-indazol-5-yl)pyridin-3-ol] registered an IC50 of 100 to 500 nM.

`Oc1cc(-n2nccn2)cnc1-c1ccc(N2CCN[C@@H](C3CC3)C2)nn1` [Compound 128, 2-{6-[(3S)-3-cyclopropylpiperazin-1-yl]pyridazin-3-yl}-5-(2H-1,2,3-triazol-2-yl)pyridin-3-ol] came in with an IC50 not above 100 nM.

`[2H]C([2H])([2H])n1cc(-c2cnc(-c3ccc(N4CCN[C@@H](C5CC5)C4)nn3)c(O)c2)cn1` [Compound 129, 2-{6-[(3S)-3-cyclopropylpiperazin-1-yl]pyridazin-3-yl}-5-[1-(^2H3)methyl-1H-pyrazol-4-yl]pyridin-3-ol] registered an IC50 not above 100 nM.

Consider `CC(C)C1CN(c2ccc(-c3ncc(/C=C/c4cn[nH]c4)cc3O)nn2)CCN1` (stereo not shown) [Compound 130, 2-{6-[3-(propan-2-yl)piperazin-1-yl]pyridazin-3-yl}-5-[(E)-2-(1H-pyrazol-4-yl)ethenyl]pyridin-3-ol], for which the IC50 fell in the range of 500 to 1000 nM.

`C[C@@H]1CN(c2ccc(-c3ncc(-c4ccc5n[nH]cc5c4)cc3O)nn2)C[C@H](C)N1` [Compound 131, 2-{6-[(3R,5S)-3,5-dimethylpiperazin-1-yl]pyridazin-3-yl}-5-(2H-indazol-5-yl)pyridin-3-ol and 2-{6-[(3S,5R)-3,5-dimethylpiperazin-1-yl]pyridazin-3-yl}-5-(2H-indazol-5-yl)pyridin-3-ol]: the IC50 lay within 500 to 1000 nM.

In turn, `CC[C@H]1CN(c2ccc(-c3ncc(-c4cn[nH]c4)cc3O)nn2)CCN1` [Compound 132, 2-{6-[(3S)-3-ethylpiperazin-1-yl]pyridazin-3-yl}-5-(1H-pyrazol-4-yl)pyridin-3-ol] had an IC50 not above 100 nM.

`CN(c1ncc(-c2ncc(-c3cn[nH]c3)cc2O)nn1)C1CC(C)(C)NC(C)(C)C1` [Compound 135, 2-{3-[methyl(2,2,6,6-tetramethylpiperidin-4-yl)amino]-1,2,4-triazin-6-yl}-5-(1H-pyrazol-4-yl)pyridin-3-ol] displayed an IC50 not above 100 nM.

The compound `CC(C)(C)NC1CCN(c2ncc(-c3ncc(-c4cn[nH]c4)cc3O)nn2)C1` (stereo not shown) [Compound 136, 2-{3-[3-(tert-butylamino)pyrrolidin-1-yl]-1,2,4-triazin-6-yl}-5-(1H-pyrazol-4-yl)pyridin-3-ol] returned an IC50 not above 100 nM.

Regarding `[2H]C([2H])([2H])n1cc(-c2cnc(-c3cnc(N4CCC(NC(C)(C)C)C4)nn3)c(O)c2)cn1` (stereo not shown) [Compound 137, 2-{3-[3-(tert-butylamino)pyrrolidin-1-yl]-1,2,4-triazin-6-yl}-5-[1-(^2H3)methyl-1H-pyrazol-4-yl]pyridin-3-ol], the IC50 is not above 100 nM.

The compound `CC(C)(C)NC1CCN(c2ncc(-c3ncc(-n4nccn4)cc3O)nn2)C1` (stereo not shown) [Compound 138, 2-{3-[3-(tert-butylamino)pyrrolidin-1-yl]-1,2,4-triazin-6-yl}-5-(2H-1,2,3-triazol-2-yl)pyridin-3-ol] registered an IC50 not above 100 nM.

`CC1(C)CC(Oc2ncc(-c3ncc(-c4cn[nH]c4)cc3O)nn2)CC(C)(C)N1` [Compound 141, 5-(1H-pyrazol-4-yl)-2-{3-[(2,2,6,6-tetramethylpiperidin-4-yl)oxy]-1,2,4-triazin-6-yl}pyridin-3-ol] showed an IC50 of 500 to 1000 nM.

Consider `[2H]C([2H])([2H])n1cc(-c2cnc(-c3cnc(N(C)C4CC(C)(C)NC(C)(C)C4)nn3)c(O)c2)cn1` [Compound 142, 5-[1-(^2H3)methyl-1H-pyrazol-4-yl]-2-{3-[methyl(2,2,6,6-tetramethylpiperidin-4-yl)amino]-1,2,4-triazin-6-yl}pyridin-3-ol], for which the IC50 was not above 100 nM.
